In PubChem BioAssay AID179 (DTP/NCI, 2004):
Calls of active or inactive are those of the source.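 How the source made its calls: active means compounds giving half or more protection of infected cells from virus-caused growth loss, again on retest; inactive means the rest.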

System: CEM cells HIV-1 protection, formazan growth assay
Assay: NCI AIDS Antiviral Assay
Settings: for IC50: measured here: growth of uninfected CEM cells
Method in brief: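 Human CEM cells, uninfected and HIV-1-infected, exposed to five drug concentrations; growth measured by soluble formazan assay and scored as percent protection from infection, with protecting compounds retested.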

| Compound | IC50 [µM] | EC50 [µM] | outcome |
| --- | --- | --- | --- |
| COc1ccc(-c2nc(SC3OC(COC(C)=O)C(OC(C)=O)C(OC(C)=O)C3OC(C)=O)n(C3OC(COC(C)=O)C(OC(C)=O)C(OC(C)=O)C3OC(C)=O)c(=O)c2C#N)cc1 (stereo unspecified) | > 100 | – | – |
| c1ccc(-c2sc(-c3cccs3)cc2Cc2cccs2)cc1 | 83.2 | > 200 | – |
| C=CCNC(=S)/N=C/C(C(=O)Nc1ccccc1)=C(/C)O | > 200 | > 200 | – |
| Cc1cc2c(c(=O)[nH]1)C(=O)OC2 | > 1100 | > 1100 | – |
| CC(=O)c1ccc(NC(=O)C(=O)Nn2c(=S)[nH]c3ccccc3c2=O)cc1 | > 93.3 | > 93.3 | – |
| CCN(CC)C1CCC(C2c3cc4c(cc3OC(N3CCOCC3)C2C)OCO4)CC1 (stereo unspecified) | 5.89 | > 100 | – |
| COC(=O)C(=O)C(C(=O)C(=O)Nc1cccc(C(C)=O)c1)c1nc2ccc([N+](=O)[O-])cc2[nH]c1=O (stereo unspecified) | > 64.6 | > 64.6 | – |
| COc1ccccc1N/N=c1\c2nc3ccccc3nc1n(-c1ccccc1C)c(=S)n2-c1ccccn1 | > 100 | > 200 | – |
| O=C1CS(=O)(=O)CN1N1CS(=O)(=O)CC1=O | 110 | > 200 | – |
| COc1ccc(C[C@H]2C(=O)OC[C@@H]2Cc2ccc(OC)c(OC)c2)cc1O | 70.8 | > 200 | – |
| Cc1ccc(S(=O)(=O)OC2C3OC(C)(C)OC3OC2C(c2cc(O)c3c(c2O)C(=O)c2ccccc2C3=O)c2cc(O)c3c(c2O)C(=O)c2ccccc2C3=O)cc1 (stereo unspecified) | > 200 | > 200 | – |
| Cc1cc(S(=O)(=O)NC2=NC(c3ccccc3)c3cc(Cl)ccc3N2)c(S)cc1Cl (stereo unspecified) | > 200 | > 200 | – |
| O=C(CCc1nnc2s/c(=C\c3ccc4c(c3)OCO4)c(=O)n12)Nc1cc(Cl)ccc1Cl | 513 | 72.4 | – |
| O=C(Nc1ccccn1)NC1CCCCC1 | 195 | > 200 | – |
| CCOC(=O)/C=C/SCCC(=O)OC | 891 | > 1150 | – |
| CN(C)[C@@H]1C(=O)C(C(N)=O)=C(O)[C@@]2(O)C(=O)C3=C(O)c4c(O)cccc4C[C@H]3C[C@@H]12 | 3.55 | > 200 | – |
| O=C1C=C(Nc2cc(Cl)ccc2Cl)c2ccccc2C1=O | > 3.16 | > 3.16 | – |
| COc1cccc2c1OCC1Cc3ccccc3OC21 (stereo unspecified) | – | – | inactive |
| CC(=O)CC(=O)CCCC(=O)Nc1ccc(Cl)cc1Cl | – | – | inactive |
| CCOC(=O)C(NC(=O)CC(C)C)(Nc1ccc(S(=O)(=O)Nc2nc(C)cc(C)n2)cc1)C(F)(F)F (stereo unspecified) | > 200 | > 200 | – |
| CSc1nc(=O)n(CCC#N)nc1SC | 29.5 | > 200 | – |

| Compound | IC50 [µM] | EC50 [µM] | outcome |
| --- | --- | --- | --- |
| NC(=O)c1c(NC=O)ncn1C1OCC(O)C(O)C1O (stereo unspecified) | > 200 | > 200 | – |
| O=C(Cc1nc2ccc(C(=O)c3ccccc3)cc2[nH]c1=O)C(=O)Nc1ccccc1[N+](=O)[O-] | 51.3 | > 79.4 | – |
| NC(=S)N/N=C/c1ncccc1O | 0.794 | > 12.6 | – |
| C#CCNC(=O)NCCCCC(NC(=O)OCc1ccccc1)C(=O)OCc1ccccc1 (stereo unspecified) | 97.7 | > 151 | – |
| CN=S(=O)(c1ccccc1)c1ccccc1 | > 200 | 56.2 | – |
| O=C(N/N=C/c1ccc(O)cc1)c1ccc(OCc2nc3ccccc3[nH]2)cc1 | > 200 | > 200 | – |
| N.N.N.N.O=C([O-])C(Cl)Cl.O=C([O-])C(Cl)Cl.[Co+3].[O-][Cl+3]([O-])([O-])[O-] | – | – | inactive |
| CCCSc1nc(-c2ccc(OC)cc2)c(C#N)c(=O)n1C1OC(COC(C)=O)C(OC(C)=O)C(OC(C)=O)C1OC(C)=O (stereo unspecified) | > 200 | > 200 | – |
| Cc1c(O)ccc2c(O)c(NC(=O)c3ccc4c(c3)CCC(C)(C)O4)c(=O)oc12 | 83.2 | > 200 | – |
| Cc1csc2nc(-c3ccccc3)c(/C=N/NC(=O)CN(C)C)n12 | – | – | inactive |
| CC(C(=O)c1ccc(O)cc1)C1(O)C(=O)Nc2c(Cl)cc(Cl)cc21 (stereo unspecified) | 112 | > 257 | – |
| COC(=O)CCC(=O)N1Cc2cc(C)ccc2N(C(=O)CCC(=O)OC)Cc2cc(C)ccc21 | – | – | inactive |
| CC(C)=C[C@@H]1C[C@H](n2cc(C)c(=O)[nH]c2=O)ON1CCOS(=O)(=O)c1ccc(C)cc1 | 81.3 | > 200 | – |
| CC1(Cl)CCC2(CC1Br)C(C)(C)C(Br)=CC1OC12C (stereo unspecified) | 33.9 | > 200 | – |
| O=C(c1cccs1)N(C(=S)OCc1ccccn1)c1ccccc1 | 79.4 | > 200 | – |
| COc1ccc(NC(=O)CC(=O)NN2C(=O)/C(=C/c3ccc(N(CCC#N)CCC#N)cc3C)N=C2/C=C\c2ccccc2)cc1 | – | – | inactive |
| Nc1ccc(N=Nc2ccc(-c3ccc(N=Nc4c(S(=O)(=O)O)cc5cc(S(=O)(=O)O)c(N=Nc6cccc([N+](=O)[O-])c6)c(N)c5c4O)cc3)cc2)c2cc(S(=O)(=O)O)ccc12 | – | – | active |
| N=c1oc2ccc3ccccc3c2cc1-c1nc2ccccc2c(=O)[nH]1 | 7.24 | > 50.1 | – |
| Cc1c(C(=O)Nc2ccc(Cl)c(C(F)(F)F)c2)oc2cc(O)ccc2/c1=N\NC(N)=S | 112 | > 525 | – |
| O=C(Cc1ccc(OCc2cccc(Cl)c2)cc1)NO | 29.5 | > 200 | – |
| CC1(C)CN(CCC#N)C(c2ccc([N+](=O)[O-])cc2)O1 (stereo unspecified) | 102 | > 200 | – |
